# Measured values as given in ChEMBL document CHEMBL1201862, “PubChem BioAssay data set” (2004).
#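 96-well plates; 48 h exposure; 5 concentrations. Endpoints by linear interpolation between flanking doses. Not reached: highest tested concentration assigned. Here, GI50 denotes the concentration required for 50% inhibition of growth.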 The source made the active and inactive calls. Rule as the data show it: active = GI50 up to about 1.1 µM and inactive = higher.
# Assays:
# Assay in all cases: NCI anticancer screen, dose series, 48 h
# MDA-MB-231 = tested on: MDA-MB-231
# SN12C = tested on: SN12C
# CCRF-CEM = tested on: CCRF-CEM
# NCI-H226 = tested on: NCI-H226
# 786-0 = tested on: 786-0
# RXF 393 = tested on: RXF 393
# UO-31 = tested on: UO-31
# SF-268 = tested on: SF-268
# K562 = tested on: K562
# SR = tested on: SR
# SK-MEL-28 = tested on: SK-MEL-28
# SK-MEL-2 = tested on: SK-MEL-2
# T47D = tested on: T47D
# M14 = tested on: M14
# ACHN = tested on: ACHN
# LOX IMVI = tested on: LOX IMVI
# EKVX = tested on: EKVX
# SNB-19 = tested on: SNB-19
# PC-3 = tested on: PC-3
# TK-10 = tested on: TK-10
# COLO 205 = tested on: COLO 205
# NCI-H522 = tested on: NCI-H522
# OVCAR-5 = tested on: OVCAR-5
# SK-MEL-5 = tested on: SK-MEL-5
# MDA-N = tested on: MDA-N
# OVCAR-4 = tested on: OVCAR-4
# MCF7 = tested on: MCF7
# MOLT-4 = tested on: MOLT-4
# NCI-H23 = tested on: NCI-H23
# NCI-H460 = tested on: NCI-H460
# SF-295 = tested on: SF-295
# UACC-257 = tested on: UACC-257
# OVCAR-3 = tested on: OVCAR-3
# A549 = tested on: A549
# MDA-MB-435 = tested on: MDA-MB-435
# U-251 = tested on: U-251
# HOP-62 = tested on: HOP-62
# HT-29 = tested on: HT-29
# HCT-15 = tested on: HCT-15
# SF-539 = tested on: SF-539
# UACC-62 = tested on: UACC-62
# KM12 = tested on: KM12
# SK-OV-3 = tested on: SK-OV-3
# IGROV-1 = tested on: IGROV-1
# DU-145 = tested on: DU-145
# CAKI-1 = tested on: CAKI-1
# BT-549 = tested on: BT-549
# NCI/ADR-RES = tested on: NCI/ADR-RES
# HCT-116 = tested on: HCT-116
# SNB-75 = tested on: SNB-75
# SW-620 = tested on: SW-620
# HL-60 = tested on: HL-60
# HOP-92 = tested on: HOP-92
# OVCAR-8 = tested on: OVCAR-8
smiles,measurement,setting,value
CC(C)=CCC/C(C)=C/CCC(C(=O)COCc1ccccc1)P1(=O)OC(C)(C)CN1C(C)(C)C (stereo unspecified),GI50,MDA-MB-231,> 100 µM (inactive)
same,GI50,SN12C,> 100 µM (inactive)
same,GI50,CCRF-CEM,30.6 µM (inactive)
same,GI50,NCI-H226,30.6 µM (inactive)
same,GI50,786-0,48.3 µM (inactive)
same,GI50,RXF 393,87.5 µM (inactive)
same,GI50,UO-31,50.4 µM (inactive)
same,GI50,SF-268,33.1 µM (inactive)
same,GI50,K562,31.9 µM (inactive)
same,GI50,SR,21.8 µM (inactive)
same,GI50,SK-MEL-28,62.1 µM (inactive)
same,GI50,SK-MEL-2,35.5 µM (inactive)
same,GI50,T47D,31.8 µM (inactive)
same,GI50,M14,93.5 µM (inactive)
same,GI50,ACHN,> 100 µM (inactive)
same,GI50,LOX IMVI,27.5 µM (inactive)
same,GI50,EKVX,> 100 µM (inactive)
same,GI50,SNB-19,> 100 µM (inactive)
same,GI50,PC-3,39.3 µM (inactive)
same,GI50,TK-10,> 100 µM (inactive)
same,GI50,COLO 205,42.2 µM (inactive)
same,GI50,NCI-H522,32.6 µM (inactive)
same,GI50,OVCAR-5,> 100 µM (inactive)
same,GI50,SK-MEL-5,47.6 µM (inactive)
same,GI50,MDA-N,> 100 µM (inactive)
same,GI50,OVCAR-4,23.9 µM (inactive)
same,GI50,MCF7,33.8 µM (inactive)
same,GI50,MOLT-4,15.9 µM (inactive)
same,GI50,NCI-H23,86.5 µM (inactive)
same,GI50,NCI-H460,52.2 µM (inactive)
same,GI50,SF-295,46.6 µM (inactive)
same,GI50,UACC-257,84.1 µM (inactive)
same,GI50,OVCAR-3,37.6 µM (inactive)
same,GI50,A549,35.6 µM (inactive)
same,GI50,MDA-MB-435,51.4 µM (inactive)
same,GI50,U-251,> 100 µM (inactive)
same,GI50,HOP-62,> 100 µM (inactive)
same,GI50,HT-29,33.2 µM (inactive)
same,GI50,HCT-15,48.6 µM
same,GI50,SF-539,> 100 µM (inactive)
same,GI50,UACC-62,> 100 µM (inactive)
same,GI50,KM12,36 µM (inactive)
same,GI50,SK-OV-3,> 100 µM (inactive)
same,GI50,IGROV-1,91.4 µM (inactive)
same,GI50,DU-145,81.7 µM (inactive)
same,GI50,CAKI-1,> 100 µM (inactive)
same,GI50,BT-549,> 100 µM (inactive)
same,GI50,NCI/ADR-RES,31.5 µM (inactive)
same,GI50,HCT-116,33.1 µM (inactive)
same,GI50,SNB-75,28.9 µM (inactive)
same,GI50,SW-620,> 100 µM (inactive)
O=C1Nc2ccccc2C(=O)/C1=C/NC(=S)NCc1ccccc1,GI50,MDA-MB-231,> 100 µM (inactive)
same,GI50,SN12C,> 100 µM (inactive)
same,GI50,NCI-H226,> 100 µM (inactive)
same,GI50,HL-60,> 100 µM (inactive)
same,GI50,786-0,> 100 µM (inactive)
same,GI50,UO-31,> 100 µM (inactive)
same,GI50,SK-MEL-28,> 100 µM (inactive)
same,GI50,SK-MEL-2,> 100 µM (inactive)
same,GI50,T47D,> 100 µM (inactive)
same,GI50,M14,> 100 µM (inactive)
same,GI50,ACHN,> 100 µM (inactive)
same,GI50,LOX IMVI,> 100 µM (inactive)
same,GI50,EKVX,> 100 µM (inactive)
same,GI50,SNB-19,> 100 µM (inactive)
same,GI50,PC-3,> 100 µM (inactive)
same,GI50,TK-10,> 100 µM (inactive)
same,GI50,COLO 205,> 100 µM (inactive)
same,GI50,OVCAR-5,> 100 µM (inactive)
same,GI50,SK-MEL-5,> 100 µM (inactive)
same,GI50,MDA-N,> 100 µM (inactive)
same,GI50,MCF7,> 100 µM (inactive)
same,GI50,MOLT-4,> 100 µM (inactive)
same,GI50,NCI-H23,> 100 µM (inactive)
same,GI50,SF-295,> 100 µM (inactive)
same,GI50,UACC-257,> 100 µM (inactive)
same,GI50,HOP-92,> 100 µM (inactive)
same,GI50,OVCAR-3,> 100 µM (inactive)
same,GI50,A549,> 100 µM (inactive)
same,GI50,MDA-MB-435,98.2 µM (inactive)
same,GI50,U-251,> 100 µM (inactive)
same,GI50,HOP-62,> 100 µM (inactive)
same,GI50,HT-29,> 100 µM (inactive)
same,GI50,SF-539,> 100 µM (inactive)
same,GI50,UACC-62,> 100 µM (inactive)
same,GI50,KM12,> 100 µM (inactive)
same,GI50,SK-OV-3,> 100 µM (inactive)
same,GI50,IGROV-1,> 100 µM (inactive)
same,GI50,OVCAR-8,> 100 µM (inactive)
same,GI50,DU-145,> 100 µM (inactive)
same,GI50,CAKI-1,> 100 µM (inactive)
same,GI50,BT-549,> 100 µM (inactive)
same,GI50,NCI/ADR-RES,> 100 µM (inactive)
same,GI50,HCT-116,> 100 µM (inactive)
same,GI50,SNB-75,> 100 µM (inactive)
same,GI50,SW-620,> 100 µM (inactive)
